Here are results for 95 compounds from the Kinase Knowledgebase extract (Sharma et al. 2016).

SMILES strings stand for the structures. Values joined by “and” are separate entries in the source; they are usually repeats but may differ in a detail not shown here. Equal entries are not always repeated.

The target in the assay is MAPK14 (human) (UniProt Q16539). The assay is described as follows: Inhibition of MAPK14 Kinase Activity. The note with it: THP.1 monocytic.
MAPK14 (human), sequence (Q16539 whole entry, looked up): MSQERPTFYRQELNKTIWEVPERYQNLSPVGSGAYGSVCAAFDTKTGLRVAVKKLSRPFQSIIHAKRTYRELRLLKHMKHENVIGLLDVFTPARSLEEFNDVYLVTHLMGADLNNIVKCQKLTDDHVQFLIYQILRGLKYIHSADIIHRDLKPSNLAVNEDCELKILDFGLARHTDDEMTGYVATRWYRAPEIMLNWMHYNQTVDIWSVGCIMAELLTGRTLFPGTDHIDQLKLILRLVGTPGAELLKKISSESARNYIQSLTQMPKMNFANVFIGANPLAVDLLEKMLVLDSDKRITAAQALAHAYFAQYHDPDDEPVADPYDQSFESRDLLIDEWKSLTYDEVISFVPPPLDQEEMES
The compound `Cc1c(CO)c(OCc2ccc(F)cc2F)c(Br)c(=O)n1-c1c(F)cccc1F` returned an IC50 of 1 to 25 µM.

Consider `C=Cc1c(OCc2ccccc2)ccn(Cc2ccccc2)c1=O`, for which the IC50 lay within 25 to 100 µM.

As for `Cc1cc(OCc2ccc(F)cc2F)c(Br)c(=O)n1-c1cccc(CNC(=O)CO)c1`, the IC50 lay in the range of 1 to 25 µM.

Compound `Cc1cc(OCc2ccc(F)cc2F)c(Br)c(=O)n1-c1c(F)cc(F)cc1F` gave an IC50 of less than 1 µM.

`Cc1c(OCc2ccccc2)ccn(Cc2cccc(F)c2)c1=O` returned an IC50 of 1 to 25 µM.

On to `Cc1ccc(CO)cc1-n1c(C)cc(OCc2ccc(F)cc2F)c(Cl)c1=O`, for which the 50% inhibitory concentration (IC50) is less than 1 µM.

Consider `CN(C(=O)Oc1ccn(Cc2ccccc2)c(=O)c1Br)c1ccccc1`, for which the IC50 was more than 100 µM.

On to `Cc1cc(OCc2ccc(F)cc2F)c(Br)c(=O)n1Cc1cnc(CO)cn1`, for which the IC50 is less than 1 µM.

As to `O=c1c(Br)c(OCc2ccccc2C(F)(F)F)ccn1Cc1ccccc1`, the IC50 was 25 to 100 µM.

Compound `Cc1c(I)c(NCc2ccccc2)c(Br)c(=O)n1-c1c(F)cccc1F` gave an IC50 of 1 to 25 µM.

Turning to `Cc1cc(OCc2cccc(Cl)c2)cc(=O)n1Cc1ccccc1`, the IC50 is more than 100 µM.

`O=c1c(Br)c(OCc2ccccc2Cl)ccn1Cc1ccccc1`: the IC50 lay within 1 to 25 µM.

As to `Cc1cc(OCc2ccc(F)cc2F)c(Br)c(=O)n1Cc1cnc(C(=O)N(C)C)cn1`, the IC50 was less than 1 µM.

With `CC(=O)NCc1cccc(Cn2c(C)cc(OCc3ccc(F)cc3F)c(Br)c2=O)c1`, the IC50 is less than 1 µM.

For `Cc1cc(OCc2ccc(F)cc2F)c(Br)c(=O)n1-c1c(F)cc(Br)cc1F`, the IC50 was less than 1 µM.

Consider `Cc1c(C#N)c(OCc2ccc(F)cc2F)c(Br)c(=O)n1-c1c(F)cccc1F`, for which the IC50 lay in the range of 25 to 100 µM.

Take `NC(=O)c1cccc(Cn2ccc(OCc3ccccc3)c(Br)c2=O)c1`: the IC50 was in the range of 1 to 25 µM.

`O=c1c(Br)c(OCc2ccccc2)ccn1Cc1ccc(Cl)cc1` registered an IC50 of less than 1 µM.

Turning to `O=c1c(Br)c(OCc2ccc(F)cc2F)cc(CN2CCOCC2)n1-c1c(F)cccc1F`, the IC50 is less than 1 µM.

Regarding `Cc1cc(OCc2ccc(F)cc2F)c(Br)c(=O)n1Cc1ccc(C(=O)NCCN)cc1`, the IC50 is less than 1 µM.

The compound `Cc1cc(OCc2ccc(F)cc2F)c(Br)c(=O)n1Cc1ccc(CN(CCO)CCO)cc1` returned an IC50 of less than 1 µM.

In the case of `CNCc1cnc(Cn2c(C)cc(OCc3ccc(F)cc3F)c(Br)c2=O)cn1`, the IC50 lay within 1 to 25 µM.

`Cc1cc(NCc2ccc(F)cc2F)c(Cl)c(=O)n1-c1c(F)cccc1F`: the half-maximal inhibitory concentration (IC50) lay within 1 to 25 µM.

Regarding `CC(C)(C)c1ccc(Cn2ccc(OCc3ccc(F)cc3F)c(Br)c2=O)cc1`, the IC50 was in the range of 1 to 25 µM.

As to `Cc1cc(OCc2ccc(F)cc2F)c(Br)c(=O)n1Cc1ccc(C(=O)N(C)C)cc1`, the IC50 is less than 1 µM.

`Cc1cc(CCc2ccccc2)c(Br)c(=O)n1Cc1cccc(F)c1` returned an IC50 of 1 to 25 µM.

Consider `CCc1c(OCc2ccccc2)ccn(Cc2ccccc2)c1=O`, for which the IC50 was 1 to 25 µM.

On to `Cc1cc(OCc2ccc(F)cc2F)c(Br)c(=O)n1Cc1cccc(C(=O)O)c1`, for which the IC50 is 1 to 25 µM.

`Cc1cc(OCc2ccc(F)cc2F)c(Br)c(=O)n1-c1ccc2cn[nH]c2c1` gave an IC50 of less than 1 µM.

In turn, `O=c1c(Br)c(NCc2ccccc2)ccn1Cc1cccc(F)c1` registered an IC50 of 1 to 25 µM.

The compound `C=CCNc1cc(C)n(-c2c(F)cccc2F)c(=O)c1Br` came in with an IC50 of 1 to 25 µM.

In the case of `O=c1cc(OCc2ccccc2)ccn1Cc1ccc(OC(F)(F)F)cc1`, the IC50 was in the range of 25 to 100 µM.

As for `COCCN(C)C(=O)c1cccc(-n2c(C)cc(OCc3ccc(F)cc3F)c(Br)c2=O)c1`, the IC50 fell in the range of 1 to 25 µM.

`O=c1c(Br)c(OCc2ccccc2)ccn1Cc1ccc(Br)cc1` gave an IC50 of less than 1 µM.

Turning to `O=c1c(Br)c(OCc2ccc(F)cc2F)cc(CO)n1-c1c(F)cc(F)cc1F`, the IC50 was less than 1 µM.

In the case of `COC(=O)c1ccc(C)c(-n2c(C)cc(OCc3ccc(F)cc3F)c(Cl)c2=O)c1`, the IC50 was less than 1 µM.

`CC(=O)Nc1ccc(Cn2c(C)cc(OCc3ccc(F)cc3F)c(Br)c2=O)cc1` returned an IC50 of less than 1 µM.

For the compound `Cc1cc(OCc2ccc(F)cc2F)c(Br)c(=O)n1-c1c(F)cc(N2CCOCC2)cc1F`, the IC50 was less than 1 µM.

With `Cc1cccc(COc2ccn(Cc3cccc(F)c3)c(=O)c2Br)c1`, the IC50 was less than 1 µM.

The compound `Cc1cc(OCc2cccc(Cl)c2)c(Br)c(=O)n1Cc1ccccc1` gave an IC50 of 1 to 25 µM.

For the compound `O=c1c(Br)c(NCc2ccc(F)cc2C(F)(F)F)ccn1Cc1cccc(F)c1`, the IC50 was more than 100 µM.

In turn, `CC(C)(C)c1ccc(Cn2ccc(OCc3ccc(F)cc3)c(Br)c2=O)cc1` had an IC50 of 1 to 25 µM.

On to `Cc1c(OCc2ccc(F)cc2)ccn(Cc2cccc(F)c2)c1=O`, for which the IC50 is 1 to 25 µM.

Compound `Cc1cc(OCc2ccc(F)cc2F)c(Br)c(=O)n1-c1cccc(CN(C)C)c1` displayed an IC50 of 1 to 25 µM.

As for `O=c1c(Br)c(CCc2ccccc2)ccn1Cc1ccccc1`, the IC50 lay in the range of 1 to 25 µM.

The compound `Cc1cc(OCc2ccc(F)cc2F)c(Br)c(=O)n1Cc1cnc(C(=O)N2CCN(C)CC2)cn1` displayed an IC50 of less than 1 µM.

The compound `Cc1cc(OCc2ccc(F)cc2F)c(Br)c(=O)n1CC1CC1` yielded an IC50 of less than 1 µM.

Take `COC(=O)c1ccc(-n2c(C)cc(OCc3ccc(F)cc3F)c(Br)c2=O)c(Cl)c1`: the IC50 was less than 1 µM.

`O=c1c(Br)c(OCc2ccccc2)ccn1CC1CCCNC1` (stereo not given) registered an IC50 of more than 100 µM.

The compound `O=c1c(Cl)c(OCc2ccc(F)cc2F)cc(CO)n1-c1c(F)cccc1F` had a half-inhibitory concentration (IC50) of less than 1 µM.

On to `C=CCNc1cc(=O)n(-c2c(F)cccc2F)c(C)c1I`, for which the IC50 was 1 to 25 µM.

In the case of `Cc1cc(OCc2ccc(F)cc2F)c(Br)c(=O)n1Cc1ccccc1C(N)=O`, the IC50 is 1 to 25 µM.

Compound `Cc1cc(OCc2ccc(F)cc2F)c(Br)c(=O)n1-c1ccc(C(N)=O)cc1` returned an IC50 of 1 to 25 µM.

`Cc1cc(OCc2ccc(F)cc2F)c(Cl)c(=O)n1-c1cc(CO)ccc1Cl` showed an IC50 of less than 1 µM.

For the compound `CCOC(=O)CNc1nc(C)ncc1Cn1c(C)cc(OCc2ccc(F)cc2F)c(Br)c1=O`, the IC50 lay within 1 to 25 µM.

Compound `O=Cc1cc(OCc2ccc(F)cc2F)c(Br)c(=O)n1-c1c(F)cccc1F` returned a half-maximal inhibitory concentration (IC50) of less than 1 µM.

In turn, `Cc1cc(OCc2ccc(F)cc2F)c(Br)c(=O)n1Cc1cnc(C(C)(C)O)cn1` gave an IC50 of 1 to 25 µM.

For `Cc1cc(OCc2ccc(F)cc2F)c(Cl)c(=O)n1-c1cccc(C(N)=O)c1`, the half-inhibitory concentration (IC50) is less than 1 µM.

The compound `Cc1cc(OCc2ccc(F)cc2F)c(Br)c(=O)n1-c1cccc(C(=O)NCCN)c1` had an IC50 of less than 1 µM.

Turning to `C=Cc1c(OCc2ccc(F)cc2F)c(Br)c(=O)n(-c2c(F)cccc2F)c1C`, the IC50 is 25 to 100 µM.

In turn, `O=C(O)c1ccc(Cn2ccc(OCc3ccccc3)c(Br)c2=O)cc1` yielded a concentration for half-maximal inhibition (IC50) of less than 1 µM.

`COC(=O)NCc1cccc(Cn2c(C)cc(OCc3ccc(F)cc3F)c(Br)c2=O)c1` yielded an IC50 of less than 1 µM.

The compound `Cc1cc(NCc2ccc(F)cc2)c(Br)c(=O)n1Cc1ccc(F)cc1` gave an IC50 of less than 1 µM.

With `Cc1cc(OCc2ccc(F)cc2F)c(Br)c(=O)n1Cc1ccc(C(=O)N(C)CCO)cc1`, the 50% inhibitory concentration (IC50) is less than 1 µM.

Consider `Cc1ccc(CN(C)C)cc1-n1c(C)cc(OCc2ccc(F)cc2F)c(Br)c1=O`, for which the IC50 is 1 to 25 µM.

As for `CNC(=O)c1ccc(Cn2c(C)cc(OCc3ccc(F)cc3F)c(Br)c2=O)cc1`, the IC50 was < 1 µM and 1 to 25 µM.

In turn, `O=c1[nH]ccc(OCc2ccccc2)c1Br` gave a 50% inhibitory concentration (IC50) of more than 100 µM.

`Cc1cc(OCc2ccc(F)cc2F)c(Br)c(=O)n1-c1cc(CO)ccc1Cl` returned an IC50 of less than 1 µM.

Consider `CNC(=O)c1cnc(Cn2c(C)cc(OCc3ccc(F)cc3F)c(Br)c2=O)cn1`, for which the IC50 lay within 1 to 25 µM.

For the compound `Cc1cc(OCc2ccc(F)cc2F)c(Br)c(=O)n1Cc1ccc(CN2CCOCC2)cc1`, the IC50 is less than 1 µM.

In turn, `COc1cccc(COc2ccn(Cc3cccc(F)c3)c(=O)c2Br)c1` returned an IC50 of 1 to 25 µM.

In the case of `O=c1cc(OCc2c(Cl)cccc2Cl)ccn1Cc1ccccc1`, the IC50 was more than 100 µM.

Take `Cc1cc(OCc2ccc(F)cc2F)c(Br)c(=O)n1-c1cccc(C(=O)NCCN(C)C)c1`: the IC50 is less than 1 µM.

For the compound `N#Cc1ccc(COc2ccn(Cc3cccc(F)c3)c(=O)c2Br)cc1`, the IC50 was in the range of 25 to 100 µM.

Consider `CCOC(=O)CCn1ccc(OCc2ccccc2)c(Br)c1=O`, for which the IC50 lay in the range of 1 to 25 µM.

Regarding `Cc1cc(OCc2ccc(F)cc2F)c(Br)c(=O)n1-c1ccc(C(=O)NCCCN)cc1`, the IC50 is less than 1 µM.

`CCn1ccc(OCc2ccccc2)c(Br)c1=O` registered a concentration for half-maximal inhibition (IC50) of 1 to 25 µM.

`Cc1ccc(Cn2ccc(OCc3ccccc3)cc2=O)cc1` registered a half-maximal inhibitory concentration (IC50) of 25 to 100 µM.

On to `O=c1c(Br)c(O)ccn1Cc1ccc(O)cc1`, for which the IC50 was more than 100 µM.

`O=c1c(I)c(OCc2ccccc2)ccn1Cc1ccccc1` showed a concentration for half-maximal inhibition (IC50) of 1 to 25 µM.

In turn, `Cc1cc(OCc2ccc(F)cc2F)c(Cl)c(=O)n1Cc1cnc(CO)cn1` returned an IC50 of 1 to 25 µM.

Compound `Cc1cc(OCc2ccc(F)cc2F)c(Br)c(=O)n1-c1ccc(C(N)=O)cc1Cl` showed an IC50 of less than 1 µM.

The compound `Cc1ccc(COc2ccn(Cc3ccccc3)c(=O)c2Br)cc1` displayed an IC50 of 1 to 25 µM.

The compound `Cc1cccc(C)c1-n1c(C)cc(OCc2c(F)cc(F)cc2F)c(Br)c1=O` showed a half-maximal inhibitory concentration (IC50) of less than 1 µM.

`Cc1cc(OCc2ccc(F)cc2F)c(Br)c(=O)n1-c1cccc(CN)c1`: the IC50 lay in the range of 1 to 25 µM.

Compound `O=c1c(Br)c(NCc2ccc(F)cc2F)ccn1Cc1cccc(F)c1` returned an IC50 of less than 1 µM.

`Cc1c(C(O)CO)c(OCc2ccc(F)cc2F)c(Br)c(=O)n1-c1c(F)cccc1F` (stereo not given) displayed an IC50 of 25 to 100 µM.

As to `Cc1cc(OCc2ccc(F)cc2F)c(Br)c(=O)n1-c1ccc(CNC(=O)CO)cc1`, the IC50 was less than 1 µM.

On to `Cc1cc(OCc2ccc(F)cc2F)c(Br)c(=O)n1Cc1ccnc(CN)n1`, for which the IC50 lay in the range of 1 to 25 µM.

Compound `Cc1cc(OCc2ccc(F)cc2F)c(Br)c(=O)n1-c1c(F)cc(N(C)C)cc1F` had an IC50 of less than 1 µM.

For the compound `CNC(=O)c1ccc(C)c(-n2c(C)cc(OCc3ccc(F)cc3CNC(=O)OC)c(Br)c2=O)c1`, the IC50 is less than 1 µM.

`Cc1cc(OCc2ccc(F)cc2F)c(Br)c(=O)n1Cc1ccc(C(=O)NCCCN)cc1` returned an IC50 of less than 1 µM.

The compound `COc1ccc(C(=O)N(C)C)cc1-n1c(C)cc(OCc2ccc(F)cc2F)c(Br)c1=O` yielded an IC50 of less than 1 µM.

With `Cc1cc(NCc2ccc(F)cc2F)c(Cl)c(=O)n1Cc1cccc(C#N)c1`, the half-inhibitory concentration (IC50) was less than 1 µM.

`CNC(=O)c1cccc(-n2c(C)cc(OCc3ccc(F)cc3F)c(Br)c2=O)c1` registered a half-inhibitory concentration (IC50) of less than 1 µM.

In general, IC50 refers to the point on the concentration scale where inhibition reaches its midpoint. Low values mean higher potency, high ones lower potency.
